Test results: the supplement of paper PMC10307832

What was measured:
Assay in all cases: relative viability (nuclei count vs DMSO), 5 days (fraction); higher = more cells survive
Elesclomol + Pemetrexed = compound: CN(NC(=O)CC(=O)NN(C)C(=S)c1ccccc1)C(=S)c1ccccc1 [Elesclomol] + Nc1nc2[nH]cc(CCc3ccc(C(=O)N[C@@H](CCC(=O)O)C(=O)O)cc3)c2c(=O)[nH]1 [Pemetrexed] (partner 0.2 µM)
In short: (§1)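 Lung cancer cell lines in 1536-well plates were dosed by pin tool the day after seeding, either with one drug alone or with a fixed anchor-drug dose plus five library-drug doses (not always all listed) in √10 steps. After 5 days, cells were fixed and their nuclei stained in one step (final 0.05% Triton X-100, 1% formaldehyde, 1 ug/ml Hoechst), then counted on 4× images. Relative viability is the nuclei count in treated wells divided by that in vehicle wells. Values are medians of duplicate plates.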

Elesclomol + OSI-027 = compound: CN(NC(=O)CC(=O)NN(C)C(=S)c1ccccc1)C(=S)c1ccccc1 [Elesclomol] + COc1cccc2cc(-c3nc([C@H]4CC[C@H](C(=O)O)CC4)n4ncnc(N)c34)[nH]c12 [OSI-027] (partner 0.5 µM)
In short: as §1

Elesclomol + Tozasertib = compound: CN(NC(=O)CC(=O)NN(C)C(=S)c1ccccc1)C(=S)c1ccccc1 [Elesclomol] + Cc1cc(Nc2cc(N3CCN(C)CC3)nc(Sc3ccc(NC(=O)C4CC4)cc3)n2)n[nH]1 [Tozasertib] (partner 0.1 µM)
In short: as §1

Elesclomol + Palbociclib = compound: CN(NC(=O)CC(=O)NN(C)C(=S)c1ccccc1)C(=S)c1ccccc1 [Elesclomol] + CC(=O)c1c(C)c2cnc(Nc3ccc(N4CCNCC4)cn3)nc2n(C2CCCC2)c1=O [Palbociclib] (partner 0.5 µM)
In short: as §1

Elesclomol + Bortezomib = compound: CN(NC(=O)CC(=O)NN(C)C(=S)c1ccccc1)C(=S)c1ccccc1 [Elesclomol] + CC(C)C[C@H](NC(=O)[C@H](Cc1ccccc1)NC(=O)c1cnccn1)B(O)O [Bortezomib] (partner 0.002 µM)
In short: as §1

Row | Cell Line | relative viability (Elesclomol + Pemetrexed; first compound 0.003162 µM) | relative viability (Elesclomol + Pemetrexed; first compound 0.01 µM) | relative viability (Elesclomol + Pemetrexed; first compound 0.03162 µM) | relative viability (Elesclomol + Pemetrexed; first compound 0.1 µM) | relative viability (Elesclomol + OSI-027; first compound 0.003162 µM) | relative viability (Elesclomol + OSI-027; first compound 0.01 µM) | relative viability (Elesclomol + OSI-027; first compound 0.03162 µM) | relative viability (Elesclomol + OSI-027; first compound 0.1 µM) | relative viability (Elesclomol + Tozasertib; first compound 0.003162 µM) | relative viability (Elesclomol + Tozasertib; first compound 0.01 µM) | relative viability (Elesclomol + Tozasertib; first compound 0.03162 µM) | relative viability (Elesclomol + Tozasertib; first compound 0.1 µM) | relative viability (Elesclomol + Palbociclib; first compound 0.003162 µM) | relative viability (Elesclomol + Palbociclib; first compound 0.01 µM) | relative viability (Elesclomol + Palbociclib; first compound 0.03162 µM) | relative viability (Elesclomol + Palbociclib; first compound 0.1 µM) | relative viability (Elesclomol + Bortezomib; first compound 0.003162 µM) | relative viability (Elesclomol + Bortezomib; first compound 0.01 µM) | relative viability (Elesclomol + Bortezomib; first compound 0.03162 µM) | relative viability (Elesclomol + Bortezomib; first compound 0.1 µM)
1 | NCI-H838 | 0.254 | 0.217 | 0.252 | 0.195 | 0.331 | 0.407 | 0.378 | 0.286 | 0.282 | 0.25 | 0.18 | 0.172 | 0.229 | 0.189 | 0.247 | 0.143 | 0.825 | 0.581 | 0.621 | 0.609
2 | NCI-H3122 | 0.177 | 0.229 | 0.194 | 0.128 | 0.955 | 0.198 | 0.144 | 0.0943 | 0.329 | 0.118 | 0.0927 | 0.0898 | 0.161 | 0.205 | 0.167 | 0.105 | 1.05 | 0.994 | 0.957 | 0.409
3 | SK-MES-1 | 0.982 | 0.597 | 0.524 | 0.415 | 0.695 | 0.196 | 0.266 | 0.395 | 0.842 | 0.791 | 0.318 | 0.479 | 0.325 | 0.291 | 0.221 | 0.184 |  |  |  | 
4 | NCI-H1944 | 0.613 | 0.724 | 0.572 | 0.189 | 0.454 | 0.306 | 0.389 | 0.299 | 0.236 | 0.251 | 0.23 | 0.139 | 0.328 | 0.328 | 0.347 | 0.227 |  |  |  | 
5 | LK-2 |  | 0.289 | 0.276 | 0.128 | 0.232 | 0.224 | 0.179 | 0.116 | 0.172 | 0.166 | 0.153 | 0.12 |  | 0.717 | 0.695 | 0.0756 |  |  |  | 
6 | PC-3 [JPC-3] | 1.04 | 0.714 | 0.518 | 0.499 | 0.734 | 0.662 | 0.781 | 0.428 | 0.913 | 0.783 | 0.941 | 0.569 | 0.609 | 0.495 | 0.456 | 0.411 | 0.82 | 0.73 | 0.764 | 0.755
7 | COR-L23 | 0.212 | 0.206 | 0.19 | 0.155 | 0.757 | 0.408 | 0.254 | 0.0774 | 0.234 | 0.155 | 0.15 | 0.0966 | 0.276 | 0.17 | 0.153 | 0.115 | 0.809 | 0.625 | 0.579 | 0.252
8 | NCI-H1355 | 1.02 | 0.992 | 0.721 | 0.206 | 0.448 | 0.266 | 0.27 | 0.186 | 0.505 | 0.538 | 0.332 | 0.173 | 0.429 | 0.344 | 0.3 | 0.171 | 1.15 | 1.08 | 0.828 | 0.24
9 | NCI-H460 | 0.0667 | 0.0599 | 0.0708 | 0.0235 | 0.619 | 0.276 | 0.101 | 0.0137 | 0.497 | 0.365 | 0.116 | 0.0193 | 0.185 | 0.138 | 0.0179 | 0.0102 | 0.911 | 0.292 | 0.0099 | 0.0073
10 | NCI-H1993 | 0.707 | 0.6 | 0.486 | 0.366 | 0.552 | 0.498 | 0.616 | 0.513 | 0.568 | 0.491 | 0.452 | 0.401 | 0.712 | 0.564 | 0.456 | 0.433 | 1.07 | 1.05 | 0.49 | 0.493
11 | ChaGo-K-1 | 0.268 | 0.255 | 0.204 | 0.147 | 0.591 | 0.462 | 0.221 | 0.136 | 0.223 | 0.177 | 0.147 | 0.163 | 0.875 | 0.882 | 0.568 | 0.154 | 0.794 | 0.402 | 0.273 | 0.275
12 | HCC-15 | 0.237 | 0.23 | 0.24 | 0.187 | 0.727 | 0.412 | 0.276 | 0.0961 | 0.358 | 0.292 | 0.204 | 0.159 | 0.714 | 0.629 | 0.518 | 0.12 | 0.998 | 0.905 | 0.662 | 0.42
13 | NCI-H23 | 0.787 | 0.568 | 0.503 | 0.12 | 0.66 | 0.298 | 0.601 | 0.312 | 0.349 | 0.311 | 0.36 | 0.128 | 0.531 | 0.413 | 0.269 | 0.127 | 1.07 |  | 0.603 | 0.119
14 | NCI-H1395 | 0.829 | 0.436 | 0.201 | 0.183 | 0.706 | 0.435 | 0.398 | 0.227 | 0.832 | 0.461 | 0.243 | 0.276 | 0.659 | 0.36 | 0.309 | 0.219 |  |  |  | 
15 | NCI-H1666 | 0.998 | 0.801 | 0.817 | 0.724 | 0.807 | 0.654 | 0.464 | 0.465 | 0.579 | 0.457 | 0.375 | 0.403 | 0.682 | 0.563 | 0.575 | 0.583 | 0.826 | 0.334 | 0.278 | 0.172
16 | NCI-H2405 | 1.03 | 0.707 | 0.323 | 0.297 | 0.651 | 0.473 | 0.339 | 0.272 | 0.691 | 0.47 | 0.292 | 0.315 | 0.507 | 0.395 | 0.303 | 0.28 | 0.959 | 0.842 | 0.515 | 0.458
